{
  "source": "patent US9096591B2",
  "about": "“Tetracyclic compounds” (Medivation Technologies, Inc., priority 2007, dated 2015)",
  "key": {"[1]": {"biological_target": "T1, human recombinant histamine H2 receptor (Homo sapiens, UniProt P25021)", "T1 construct": "expressed in transfected cells; host or cells: CHO-K1 cells", "T1 sequence (P25021 whole entry)": "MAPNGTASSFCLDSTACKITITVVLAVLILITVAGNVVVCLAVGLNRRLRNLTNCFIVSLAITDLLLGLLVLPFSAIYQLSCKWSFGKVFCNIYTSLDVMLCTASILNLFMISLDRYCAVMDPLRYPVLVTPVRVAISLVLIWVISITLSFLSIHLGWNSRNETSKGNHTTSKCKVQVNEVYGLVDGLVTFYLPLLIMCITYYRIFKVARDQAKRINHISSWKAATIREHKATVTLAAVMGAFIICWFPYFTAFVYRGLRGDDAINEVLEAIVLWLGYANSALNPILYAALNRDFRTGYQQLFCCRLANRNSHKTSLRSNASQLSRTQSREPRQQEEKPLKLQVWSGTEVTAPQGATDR", "test": "Histamine H2 radioligand binding ([125I]Aminopotentidine)", "in_short": "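Test compounds were assessed for their ability to displace radioligand from the human recombinant histamine H2 receptor. Non-specific binding was determined in the presence of 3 μM Tiotidine, and results were expressed as percent inhibition of specific binding, with 1% DMSO serving as the vehicle.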"}, "[2]": {"biological_target": "T2, human recombinant adrenergic α2A receptor (Homo sapiens, UniProt P08913)", "T2 construct": "expressed in transfected cells; host or cells: insect Sf9 cells", "T2 sequence (P08913 1-465)": "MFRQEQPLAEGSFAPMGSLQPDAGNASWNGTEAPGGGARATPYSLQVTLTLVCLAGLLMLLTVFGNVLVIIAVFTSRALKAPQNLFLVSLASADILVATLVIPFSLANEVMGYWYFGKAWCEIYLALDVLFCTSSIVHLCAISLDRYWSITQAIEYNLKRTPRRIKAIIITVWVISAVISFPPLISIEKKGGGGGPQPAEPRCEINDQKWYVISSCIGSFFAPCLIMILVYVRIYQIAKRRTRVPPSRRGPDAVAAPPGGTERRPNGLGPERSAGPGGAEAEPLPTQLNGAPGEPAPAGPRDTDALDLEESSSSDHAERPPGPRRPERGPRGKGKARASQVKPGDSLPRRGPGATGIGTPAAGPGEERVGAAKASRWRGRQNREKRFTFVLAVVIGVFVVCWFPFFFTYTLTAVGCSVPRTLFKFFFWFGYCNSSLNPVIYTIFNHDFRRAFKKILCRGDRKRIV", "test": "Adrenergic α2A radioligand binding ([3H]MK-912)", "parameters": "Inhibition of ligand binding, Adren. alpha2A: concentration or dose not given beside the values", "conditions": "percent inhibition of specific binding", "in_short": "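Membranes from Sf9 cells expressing the receptor were incubated with 1 nM [3H]MK-912 for 60 minutes at 25° C in 50 mM Tris-HCl pH 7.4, 12.5 mM MgCl2, 2 mM EDTA. 10 μM WB-4101 defined non-specific binding. Values are percent inhibition of specific bound radioactivity after filtration.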"}, "[3]": {"biological_target": "T3, human recombinant serotonin (5-Hydroxytryptamine) 5-HT2C receptor (Homo sapiens, UniProt P28335)", "T3 construct": "expressed in transfected cells; host or cells: CHO-K1 cells", "T3 sequence (P28335 33-458)": "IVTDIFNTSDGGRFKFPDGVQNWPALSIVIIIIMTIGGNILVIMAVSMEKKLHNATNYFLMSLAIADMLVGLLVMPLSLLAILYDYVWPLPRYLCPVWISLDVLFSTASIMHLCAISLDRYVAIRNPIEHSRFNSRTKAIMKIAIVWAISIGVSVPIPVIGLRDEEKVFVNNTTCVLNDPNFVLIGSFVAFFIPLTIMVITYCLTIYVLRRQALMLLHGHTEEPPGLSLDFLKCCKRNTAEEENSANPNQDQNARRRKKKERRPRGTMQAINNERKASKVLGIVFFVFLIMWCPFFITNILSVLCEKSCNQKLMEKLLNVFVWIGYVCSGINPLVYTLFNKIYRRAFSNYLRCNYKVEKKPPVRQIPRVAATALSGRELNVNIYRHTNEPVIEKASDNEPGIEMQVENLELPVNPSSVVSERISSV", "test": "Serotonin 5-HT2C radioligand binding ([3H]Mesulergine)", "parameters": "Inhibition of ligand binding, Ser. 5-HT2C: concentration or dose not given beside the values", "conditions": "percent inhibition of specific binding", "description": "Compounds of the invention were incubated with 1 nM [^3H]Mesulergine for 60 minutes at 25° C. Non-specific binding was estimated in the presence of 1 μM Mianserin. Receptor proteins were filtered and washed, the filters were then counted to determine [^3H]Mesulergine specifically bound. […] Biochemical assay results are presented as the percent inhibition of specific binding in Table 6."}, "[4]": {"biological_target": "T4, Serotonin (5-Hydroxytryptamine) 5-HT7 (Homo sapiens, UniProt P34969)", "T4 construct": "expressed in transfected cells; host or cells: CHO cells", "T4 sequence (P34969 whole entry)": "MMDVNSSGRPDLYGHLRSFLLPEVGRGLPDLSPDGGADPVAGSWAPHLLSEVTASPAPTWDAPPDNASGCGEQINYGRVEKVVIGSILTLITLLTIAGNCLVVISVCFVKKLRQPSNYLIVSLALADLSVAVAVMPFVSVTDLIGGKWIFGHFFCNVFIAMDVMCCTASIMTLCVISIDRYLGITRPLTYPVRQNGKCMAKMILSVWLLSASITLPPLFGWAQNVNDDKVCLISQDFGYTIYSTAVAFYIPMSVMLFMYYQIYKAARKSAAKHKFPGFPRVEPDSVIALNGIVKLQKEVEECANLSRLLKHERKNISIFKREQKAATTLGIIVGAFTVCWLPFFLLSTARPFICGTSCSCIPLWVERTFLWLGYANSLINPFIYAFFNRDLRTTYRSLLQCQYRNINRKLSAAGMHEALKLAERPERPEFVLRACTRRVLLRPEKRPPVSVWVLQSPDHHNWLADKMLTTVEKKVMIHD", "test": "Serotonin 5-HT7 radioligand binding ([3H]LSD)", "parameters": "Inhibition of ligand binding, Ser. 5-HT7: concentration or dose not given beside the values", "conditions": "percent inhibition of specific binding", "description": "Lysergic acid diethylamide (LSD) for 2 hours at 25° C. […] Receptor proteins were filtered and washed, the filters were then counted to determine [^3H]LSD specifically bound. […] Biochemical assay results are presented as the percent inhibition of specific binding in Table 6."}, "[5]": {"conditions": "1 μM compound, 0.1 nM [125I]Aminopotentidine, read-out: Histamine Binding H2, percent inhibition of specific binding"}, "[6]": {"conditions": "percent inhibition of specific binding, screened at 1 μM, read-out: Inhibition of ligand binding, Hist. H2"}},
  "note": "Read-outs that look alike come from different tables or passages of the source.",
  "data": [
    {"smiles": "Cc1ccc2c(c1)c1c(n2CCc2ccccc2F)CCN(C)C1", "note": "[Compound 34, 5-(2-fluorophenethyl)-2,3,4,5-tetrahydro-2,8-dimethyl-1H-pyrido[4,3-b]indole]", "values": [
      {"measurement": "inhibition at 1 µM", "setting": "[1]; [5]", "result": 89, "unit": "%"},
      {"measurement": "inhibition at 1 µM", "setting": "[1]; [6]", "result": 89, "unit": "%"},
      {"measurement": "Inhibition of ligand binding, Adren. alpha2A", "setting": "[2]", "result": 99, "unit": "%"},
      {"measurement": "Inhibition of ligand binding, Ser. 5-HT2C", "setting": "[3]", "result": 96, "unit": "%"},
      {"measurement": "Inhibition of ligand binding, Ser. 5-HT7", "setting": "[4]", "result": 97, "unit": "%"}
    ]},
    {"smiles": "CN1CCc2c(c3cc(Cl)ccc3n2CCc2ccccc2)C1", "note": "[Compound 36, 8-chloro-2,3,4,5-tetrahydro-2-methyl-5-phenethyl-1H-pyrido[4,3-b]indole]", "values": [
      {"measurement": "inhibition at 0.1 µM", "setting": "[1]; 0.1 μM compound, 0.1 nM [125I]Aminopotentidine, read-out: Histamine Binding H2, percent inhibition of specific binding", "result": 41, "unit": "%"},
      {"measurement": "inhibition at 1 µM", "setting": "[1]; [5]", "result": 92, "unit": "%"},
      {"measurement": "inhibition at 1 µM", "setting": "[1]; [6]", "result": 92, "unit": "%"},
      {"measurement": "Inhibition of ligand binding, Adren. alpha2A", "setting": "[2]", "result": 97, "unit": "%"},
      {"measurement": "Inhibition of ligand binding, Ser. 5-HT2C", "setting": "[3]", "result": 94, "unit": "%"},
      {"measurement": "Inhibition of ligand binding, Ser. 5-HT7", "setting": "[4]", "result": 99, "unit": "%"}
    ]},
    {"smiles": "CN1CCc2c(c3cc(I)ccc3n2CCc2ccccc2F)C1", "note": "[Compound 89, 5-(2-fluorophenethyl)-2,3,4,5-tetrahydro-8-iodo-2-methyl-1H-pyrido[4,3-b]indole]", "values": [
      {"measurement": "inhibition at 1 µM", "setting": "[1]; [5]", "result": 88, "unit": "%"},
      {"measurement": "inhibition at 1 µM", "setting": "[1]; [6]", "result": 88, "unit": "%"},
      {"measurement": "Inhibition of ligand binding, Adren. alpha2A", "setting": "[2]", "result": 98, "unit": "%"},
      {"measurement": "Inhibition of ligand binding, Ser. 5-HT2C", "setting": "[3]", "result": 97, "unit": "%"},
      {"measurement": "Inhibition of ligand binding, Ser. 5-HT7", "setting": "[4]", "result": 100, "unit": "%"}
    ]},
    {"smiles": "Cc1ccc2c(c1)c1c(n2Cc2ccccc2)CCN(C)C1", "note": "[Compound 137, 5-benzyl-2,3,4,5-tetrahydro-2,8-dimethyl-1H-pyrido[4,3-b]indole]", "values": [
      {"measurement": "inhibition at 1 µM", "setting": "[1]; [5]", "result": 45, "unit": "%"},
      {"measurement": "inhibition at 1 µM", "setting": "[1]; [6]", "result": 45, "unit": "%"},
      {"measurement": "Inhibition of ligand binding, Adren. alpha2A", "setting": "[2]", "result": 15, "unit": "%"},
      {"measurement": "Inhibition of ligand binding, Ser. 5-HT2C", "setting": "[3]", "result": 10, "unit": "%"},
      {"measurement": "Inhibition of ligand binding, Ser. 5-HT7", "setting": "[4]", "result": 15, "unit": "%"}
    ]},
    {"smiles": "CCN1CCc2c(c3cc(C)ccc3n2Cc2ccc(C)nc2)C1", "note": "[Compound 138, 2-ethyl-2,3,4,5-tetrahydro-8-methyl-5-((6-methylpyridin-3-yl)methyl)-1H-pyrido[4,3-b]indole]", "values": [
      {"measurement": "inhibition at 1 µM", "setting": "[1]; [5]", "result": 27, "unit": "%"},
      {"measurement": "inhibition at 1 µM", "setting": "[1]; [6]", "result": 27, "unit": "%"},
      {"measurement": "Inhibition of ligand binding, Adren. alpha2A", "setting": "[2]", "result": 31, "unit": "%"},
      {"measurement": "Inhibition of ligand binding, Ser. 5-HT2C", "setting": "[3]", "result": 5, "unit": "%"},
      {"measurement": "Inhibition of ligand binding, Ser. 5-HT7", "setting": "[4]", "result": 23, "unit": "%"}
    ]},
    {"smiles": "Cc1ccc2c(c1)c1c(n2Cc2ccc(C)nc2)CCN(C)C1", "note": "[Compound 139, 2,3,4,5-tetrahydro-2,8-dimethyl-5-((6-methylpyridin-3-yl)methyl)-1H-pyrido[4,3-b]indole]", "values": [
      {"measurement": "inhibition at 1 µM", "setting": "[1]; [6]", "result": 7, "unit": "%"},
      {"measurement": "Inhibition of ligand binding, Adren. alpha2A", "setting": "[2]", "result": 50, "unit": "%"},
      {"measurement": "Inhibition of ligand binding, Ser. 5-HT2C", "setting": "[3]", "result": 0, "unit": "%"},
      {"measurement": "Inhibition of ligand binding, Ser. 5-HT7", "setting": "[4]", "result": 74, "unit": "%"}
    ]},
    {"smiles": "CCN1CCc2c(c3cc(C)ccc3n2Cc2ccccc2)C1", "note": "[Compound 140, 5-benzyl-2-ethyl-2,3,4,5-tetrahydro-8-methyl-1H-pyrido[4,3-b]indole]", "values": [
      {"measurement": "inhibition at 1 µM", "setting": "[1]; [5]", "result": 45, "unit": "%"},
      {"measurement": "inhibition at 1 µM", "setting": "[1]; [6]", "result": 45, "unit": "%"},
      {"measurement": "Inhibition of ligand binding, Adren. alpha2A", "setting": "[2]", "result": 17, "unit": "%"},
      {"measurement": "Inhibition of ligand binding, Ser. 5-HT2C", "setting": "[3]", "result": "−10", "unit": "%"},
      {"measurement": "Inhibition of ligand binding, Ser. 5-HT7", "setting": "[4]", "result": 2, "unit": "%"}
    ]},
    {"smiles": "Cc1ccc2c(c1)c1c(n2CCC2CCCCC2)CCN(C)C1", "note": "[Compound 163, 5-(2-cyclohexylethyl)-2,3,4,5-tetrahydro-2,8-dimethyl-1H-pyrido[4,3-b]indole]", "values": [
      {"measurement": "inhibition at 1 µM", "setting": "[1]; [5]", "result": 88, "unit": "%"},
      {"measurement": "inhibition at 1 µM", "setting": "[1]; [6]", "result": 88, "unit": "%"},
      {"measurement": "Inhibition of ligand binding, Adren. alpha2A", "setting": "[2]", "result": 93, "unit": "%"},
      {"measurement": "Inhibition of ligand binding, Ser. 5-HT2C", "setting": "[3]", "result": 99, "unit": "%"},
      {"measurement": "Inhibition of ligand binding, Ser. 5-HT7", "setting": "[4]", "result": 95, "unit": "%"}
    ]},
    {"smiles": "Cc1ccc2c(c1)c1c(n2CCN2CCCC2)CCN(C)C1", "note": "[Compound 221, 2,3,4,5-tetrahydro-2,8-dimethyl-5-(2-(pyrrolidin-1-yl)ethyl)-1H-pyrido[4,3-b]indole]", "values": [
      {"measurement": "inhibition at 1 µM", "setting": "[1]; [5]", "result": 52, "unit": "%"},
      {"measurement": "inhibition at 1 µM", "setting": "[1]; [6]", "result": 52, "unit": "%"},
      {"measurement": "Inhibition of ligand binding, Adren. alpha2A", "setting": "[2]", "result": 37, "unit": "%"},
      {"measurement": "Inhibition of ligand binding, Ser. 5-HT2C", "setting": "[3]", "result": 69, "unit": "%"},
      {"measurement": "Inhibition of ligand binding, Ser. 5-HT7", "setting": "[4]", "result": 36, "unit": "%"}
    ]},
    {"smiles": "Cc1ccc2c(c1)c1c(n2CCC(=O)N2CCC(N)CC2)CCN(C)C1", "note": "[Compound 231, 1-(4-aminopiperidin-1-yl)-3-(1,2,3,4-tetrahydro-2,8-dimethylpyrido[4,3-b]indol-5-yl)propan-1-one]", "values": [
      {"measurement": "inhibition at 1 µM", "setting": "[1]; [5]", "result": 4, "unit": "%"},
      {"measurement": "inhibition at 1 µM", "setting": "[1]; [6]", "result": 4, "unit": "%"},
      {"measurement": "Inhibition of ligand binding, Adren. alpha2A", "setting": "[2]", "result": 29, "unit": "%"},
      {"measurement": "Inhibition of ligand binding, Ser. 5-HT2C", "setting": "[3]", "result": 49, "unit": "%"},
      {"measurement": "Inhibition of ligand binding, Ser. 5-HT7", "setting": "[4]", "result": 0, "unit": "%"}
    ]}
  ]
}
